Assay results reported in US12404295B2, “(Hetero)aryl-methyl-thio-beta-D-galactopyranoside derivatives” (Idorsia Pharmaceuticals Ltd, priority 2019, dated 2025).

Target: human Gal-3 (hGal-3) (Homo sapiens (Human), UniProt P17931)
Experiment: competitive binding assay: biotinylated hGal-3 binding to microplate-adsorbed asialofetuin (ASF)
Settings: Gal-3 inhibition; binding of biotinylated hGal-3 to ASF; mean values; read-out: IC50
Method: If not explicitly mentioned otherwise, the inhibition data refer to the binding of biotinylated human Gal-3 (hGal-3).
(§1) Evaluation of Compound Inhibitory Activity (IC50)
The inhibitory activity of compounds is determined in competitive binding assays.
Briefly, compounds are serially diluted in DMSO (working dilutions).
(§2) Plates are incubated for 3 hours at 4° C., then washed with cold assay buffer (3×50 uL), incubated for 1 hour with 25 μL/well of a streptavidin-peroxidase solution (diluted in assay buffer to 80 ng/mL) at 4° C., followed by further washing steps with assay buffer (3×50 uL). Finally, 25 μL/well of ABTS substrate is added.
(§3) The calculated IC50 values may fluctuate depending on the daily assay performance. Fluctuations of this kind are known to those skilled in the art. IC50 values from several measurements are given as mean values.

human Gal-3 (hGal-3), sequence (P17931 whole entry): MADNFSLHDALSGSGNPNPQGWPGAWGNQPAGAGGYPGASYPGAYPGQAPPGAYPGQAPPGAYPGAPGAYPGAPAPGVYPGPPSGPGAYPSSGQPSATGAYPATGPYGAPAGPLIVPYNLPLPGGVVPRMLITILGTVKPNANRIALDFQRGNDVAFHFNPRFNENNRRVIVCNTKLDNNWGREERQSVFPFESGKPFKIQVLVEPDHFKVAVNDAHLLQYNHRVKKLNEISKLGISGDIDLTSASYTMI

| SMILES | IC50 [nM] |
| --- | --- |
| CC(C)Cc1c([C@@H](S[C@@H]2O[C@H](CO)[C@H](O)[C@H](n3cc(-c4cc(F)c(F)c(F)c4)nn3)[C@H]2O)C2(O)CCC(F)(F)CC2)noc1C1CC1 [2.44.131 R., (2S,3R,4S,5R,6R)-2-(((R)-(5-Cyclopropyl-4-isobutylisoxazol-3-yl)(4,4-difluoro-1-hydroxycyclohexyl)methyl)thio)-6-(hydroxymethyl)-4-(4-(3,4,5-trifluorophenyl)-1H-1,2,3-triazol-1-yl)tetrahydro-2H-pyran-3,5-diol] | 50 |
| CS(=O)(=O)N1CC(O)([C@H](S[C@@H]2O[C@H](CO)[C@H](O)[C@H](n3cc(-c4cc(F)c(F)c(F)c4)nn3)[C@H]2O)c2ccccc2C(F)(F)F)C1 [Example 2..57.112R., (2S,3R,4S,5R,6R)-2-(((R)-(3-Hydroxy-1-(methylsulfonyl)azetidin-3-yl)(2-(trifluoromethyl)phenyl)methyl)thio)-6-(hydroxymethyl)-4-(4-(3,4,5-trifluorophenyl)-1H-1,2,3-triazol-1-yl)tetrahydro-2H-pyran-3,5-diol] | 170 |
| CC(C)(O)C(S[C@@H]1O[C@H](CO)[C@H](O)[C@H](n2cc(-c3cc(F)c(F)c(F)c3)nn2)[C@H]1O)c1ccccc1Cl (stereo partly drawn) [Example 2.31.111., (2S,3R,4S,5R,6R)-2-((1-(2-Chlorophenyl)-2-hydroxy-2-methylpropyl)thio)-6-(hydroxymethyl)-4-(4-(3,4,5-trifluorophenyl)-1H-1,2,3-triazol-1-yl)tetrahydro-2H-pyran-3,5-diol] | 410 |
| COC(=O)N1CC(O)(C(S[C@@H]2O[C@H](CO)[C@H](O)[C@H](n3cc(-c4cc(F)c(F)c(F)c4)nn3)[C@H]2O)c2ccccc2C(F)(F)F)C1 (stereo partly drawn) [Example 2..58.112., Methyl 3-((((2S,3R,4S,5R,6R)-3,5-dihydroxy-6-(hydroxymethyl)-4-(4-(3,4,5-trifluorophenyl)-1H-1,2,3-triazol-1-yl)tetrahydro-2H-pyran-2-yl)thio)(2-(trifluoromethyl)phenyl)methyl)-3-hydroxyazetidine-1-carboxylate] | 400 |
| O=C(NC1CC1)N1CC(O)(C(S[C@@H]2O[C@H](CO)[C@H](O)[C@H](n3cc(-c4cc(F)c(F)c(F)c4)nn3)[C@H]2O)c2ccccc2C(F)(F)F)C1 (stereo partly drawn) [Example 2..59.11.2, N-Cyclopropyl-3-((((2S,3R,4S,5R,6R)-3,5-dihydroxy-6-(hydroxymethyl)-4-(4-(3,4,5-trifluorophenyl)-1H-1,2,3-triazol-1-yl)tetrahydro-2H-pyran-2-yl)thio)(2-(trifluoromethyl)phenyl)methyl)-3-hydroxyazetidine-1-carboxamide] | 290 |

Same assay, conditions: Table 5; read-out: IC50 (Gal-3 inhibition)

| SMILES | IC50 [nM] |
| --- | --- |
| OC[C@H]1O[C@@H](S[C@@H](c2ccccc2Cl)C2(O)CCC(F)(F)CC2)[C@H](O)[C@@H](n2cc(-c3cc(F)c(F)c(F)c3)nn2)[C@H]1O [Example 2.44.111S, (2S,3R,4S,5R,6R)-2-(((S)-(2-Chlorophenyl)(4,4-difluoro-1-hydroxycyclohexyl)methyl)thio)-6-(hydroxymethyl)-4-(4-(3,4,5-trifluorophenyl)-1H-1,2,3-triazol-1-yl)tetrahydro-2H-pyran-3,5-diol] | 18400 |
| OC[C@H]1O[C@@H](S[C@H](c2ccccc2Cl)C2(O)CCC(F)(F)CC2)[C@H](O)[C@@H](n2cc(-c3cc(F)c(F)c(F)c3)nn2)[C@H]1O [Example 2.44.111R, (2S,3R,4S,5R,6R)-2-(((R)-(2-Chlorophenyl)(4,4-difluoro-1-hydroxycyclohexyl)methyl)thio)-6-(hydroxymethyl)-4-(4-(3,4,5-trifluorophenyl)-1H-1,2,3-triazol-1-yl)tetrahydro-2H-pyran-3,5-diol] | 90 |

Same assay, conditions: Table 9; 2-OMe-Gal inhibitors; read-out: IC50 (Gal-3 inhibition)

| SMILES | IC50 [nM] |
| --- | --- |
| CO[C@@H]1[C@@H](n2cc(-c3cc(F)c(F)c(F)c3)nn2)[C@@H](O)[C@@H](CO)O[C@H]1S[C@H](c1ccccc1C(F)(F)F)[C@]1(O)CCOC(C)(C)C1 [Example 2.43.112RS.I, (2R,3R,4S,5R,6S)-6-(((R)-((S)-4-Hydroxy-2,2-dimethyltetrahydro-2H-pyran-4-yl)(2-(trifluoromethyl)phenyl)methyl)thio)-2-(hydroxymethyl)-5-methoxy-4-(4-(3,4,5-trifluorophenyl)-1H-1,2,3-triazol-1-yl)tetrahydro-2H-pyran-3-ol] | 140 |

Same assay, conditions: Table 11; read-out: IC50 (Gal-3 inhibition)

| SMILES | IC50 [nM] |
| --- | --- |
| CO[C@@H]1[C@@H](n2cc(-c3cc(F)c(F)c(F)c3)nn2)[C@@H](O)[C@@H](CO)O[C@H]1S[C@@H](c1ncccc1C)[C@@]1(O)CCOC(C)(C)C1 [Example 2.43.126SR.I., (2R,3R,4S,5R,6S)-6-(((S)-((R)-4-Hydroxy-2,2-dimethyltetrahydro-2H-pyran-4-yl)(3-methylpyridin-2-yl)methyl)thio)-2-(hydroxymethyl)-5-methoxy-4-(4-(3,4,5-trifluorophenyl)-1H-1,2,3-triazol-1-yl)tetrahydro-2H-pyran-3-ol] | 3500 |
| CO[C@@H]1[C@@H](n2cc(-c3cc(F)c(F)c(F)c3)nn2)[C@@H](O)[C@@H](CO)O[C@H]1SC(c1ncccc1C)C1(O)CCC2(CCOCC2)CC1 (stereo partly drawn) [Example 2.72.126.I, 9-((((2S,3R,4S,5R,6R)-5-Hydroxy-6-(hydroxymethyl)-3-methoxy-4-(4-(3,4,5-trifluorophenyl)-1H-1,2,3-triazol-1-yl)tetrahydro-2H-pyran-2-yl)thio)(3-methylpyridin-2-yl)methyl)-3-oxaspiro[5.5]undecan-9-ol] | 130 |

Target: human Gal-1 (hGal-1) (Homo sapiens (Human), UniProt P09382)
Sequence (P09382 whole entry): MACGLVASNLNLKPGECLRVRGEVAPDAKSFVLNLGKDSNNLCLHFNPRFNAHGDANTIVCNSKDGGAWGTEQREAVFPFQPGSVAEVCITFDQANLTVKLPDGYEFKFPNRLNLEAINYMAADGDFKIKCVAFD
Experiment: competitive binding assay: biotinylated hGal-1 binding to microplate-adsorbed asialofetuin (ASF)
Settings: Table 15; read-out: IC50 (Galectin-1 inhibition)
Method: Inhibition data of the epimers R and S of selected Examples are also listed.
as §1
The inhibitory activity of compounds is determined in competitive binding assays. This spectrophotometric assay measures the binding of biotinylated human Gal-3 (hGal-3) or human Gal-1 (hGal-1), respectively, to a microplate-adsorbed glycoprotein, asialofetuin (ASF) (Proc Natl Acad Sci USA. 2013 Mar. 26; 110(13):5052-7.).
Briefly, compounds are serially diluted in DMSO (working dilutions). ASF-coated 384 well plates are supplemented with 22.8 μL/well of biotinylated hGal-3 or hGal-1 in assay buffer (i.e. 300-1000 ng/mL biotinylated hGal-3 or hGal-1) to which 1.2 μL of compound working dilutions are added and mixed.
as §2, §3

| SMILES | IC50 [nM] |
| --- | --- |
| CO[C@@H]1[C@@H](n2cc(-c3cnc(F)c(C)c3)nn2)[C@@H](O)[C@@H](CO)O[C@H]1SC(c1ncccc1C)C1(O)CCC(F)(F)CC1 (stereo partly drawn) [Example 24.44.126.I, (2R,3R,4S,5R,6S)-6-(((4,4-Difluoro-1-hydroxycyclohexyl)(3-methylpyridin-2-yl)methyl)thio)-4-(4-(6-fluoro-5-methylpyridin-3-yl)-1H-1,2,3-triazol-1-yl)-2-(hydroxymethyl)-5-methoxytetrahydro-2H-pyran-3-ol] | 160 |
| OC[C@H]1O[C@@H](S[C@@H](c2ccccc2Cl)C2(O)CCC(F)(F)CC2)[C@H](O)[C@@H](n2cc(-c3cc(F)c(F)c(F)c3)nn2)[C@H]1O [Example 2.44.111S., (2S,3R,4S,5R,6R)-2-(((S)-(2-Chlorophenyl)(4,4-difluoro-1-hydroxycyclohexyl)methyl)thio)-6-(hydroxymethyl)-4-(4-(3,4,5-trifluorophenyl)-1H-1,2,3-triazol-1-yl)tetrahydro-2H-pyran-3,5-diol] | 47500 |
| CO[C@@H]1[C@@H](n2cc(-c3cc(F)c(F)c(F)c3)nn2)[C@@H](O)[C@@H](CO)O[C@H]1S[C@H](c1ccccc1C(F)(F)F)[C@]1(O)CCOC(C)(C)C1 [Example 2.43.112RS.I., (2R,3R,4S,5R,6S)-6-(((R)-((S)-4-Hydroxy-2,2-dimethyltetrahydro-2H-pyran-4-yl)(2-(trifluoromethyl)phenyl)methyl)thio)-2-(hydroxymethyl)-5-methoxy-4-(4-(3,4,5-trifluorophenyl)-1H-1,2,3-triazol-1-yl)tetrahydro-2H-pyran-3-ol] | 1300 |
| Cc1nc(C(S[C@@H]2O[C@H](CO)[C@H](O)[C@H](n3cc(-c4cc(F)c(F)c(F)c4)nn3)[C@H]2O)C(C)(C)O)c(C)s1 (stereo partly drawn) [Example 2.31.123., (2S,3R,4S,5R,6R)-2-((1-(2,5-Dimethylthiazol-4-yl)-2-hydroxy-2-methylpropyl)thio)-6-(hydroxymethyl)-4-(4-(3,4,5-trifluorophenyl)-1H-1,2,3-triazol-1-yl)tetrahydro-2H-pyran-3,5-diol] | 1740 |
| CC(C)Cc1c([C@@H](S[C@@H]2O[C@H](CO)[C@H](O)[C@H](n3cc(-c4cc(F)c(F)c(F)c4)nn3)[C@H]2O)C2(O)CCC(F)(F)CC2)noc1C1CC1 [Example 2.44.131 R., (2S,3R,4S,5R,6R)-2-(((R)-(5-Cyclopropyl-4-isobutylisoxazol-3-yl)(4,4-difluoro-1-hydroxycyclohexyl)methyl)thio)-6-(hydroxymethyl)-4-(4-(3,4,5-trifluorophenyl)-1H-1,2,3-triazol-1-yl)tetrahydro-2H-pyran-3,5-diol] | 90 |
| CO[C@@H]1[C@@H](n2cc(-c3cc(F)c(F)c(F)c3)nn2)[C@@H](O)[C@@H](CO)O[C@H]1SC(c1ncccc1C)C1(O)CCC2(CCOCC2)CC1 (stereo partly drawn) [Example 2.72.126.I., 9-((((2S,3R,4S,5R,6R)-5-Hydroxy-6-(hydroxymethyl)-3-methoxy-4-(4-(3,4,5-trifluorophenyl)-1H-1,2,3-triazol-1-yl)tetrahydro-2H-pyran-2-yl)thio)(3-methylpyridin-2-yl)methyl)-3-oxaspiro[5.5]undecan-9-ol] | 730 |
| OC[C@H]1O[C@@H](S[C@H](c2ccccc2Cl)C2(O)CCC(F)(F)CC2)[C@H](O)[C@@H](n2cc(-c3cc(F)c(F)c(F)c3)nn2)[C@H]1O [Example 2.44.111R., (2S,3R,4S,5R,6R)-2-(((R)-(2-Chlorophenyl)(4,4-difluoro-1-hydroxycyclohexyl)methyl)thio)-6-(hydroxymethyl)-4-(4-(3,4,5-trifluorophenyl)-1H-1,2,3-triazol-1-yl)tetrahydro-2H-pyran-3,5-diol] | 1060 |
